Earlier results as cited in PubChem BioAssay AID1259409 (Chemical Carcinogenesis Research Information System (CCRIS), 2018).

Tested on: rodent chemically induced tumor inhibition, incidence and multiplicity
Test: CCRIS tumor inhibitor studies
Conditions: Carcinogen: DIETHYLNITROSAMINE, 55-18-5, 684-93-5, N-BUTYL-N-(4-HYDROXYBUTYL)NITROSAMINE, 3817-11-6, Carcinogen: DIETHYLNITROSAMINE, 55-18-5, 684-93-5, N-BUTYL-N-(4-HYDROXYBUTYL)NITROSAMINE, 3817-11-6, Dose [Inhibitor]: 0, Route [Inhibitor]: ORAL, Species: RAT

For `CCCCCCCCCCCCC(=O)COC1=C(O)C(=O)O[C@@H]1[C@@H](O)CO`, the “tumour outcome (control, treated, inhibition, significance)” value (N-METHYL-N-NITROSOUREA, DIMETHY, N-METHYL-N-NITROSOUREA, DIMETHY, 1% IN THE DIET FOR 24 WK BEGINNING 1 DAY POST CARCINOGEN TREATMENT (STUDY DURATION: 28 WK), Strain/Sex: F344/MALE, Target Tissue: Type of Lesion: URINARY BLADDER: PAPILLOMA, Dose [Carcinogen]: 100 MG/KG BW DEN ONCE FOLLOWED BY 20 MG/KG BW MNU 4 TIMES AND 0.05% BBN IN DRINKING WATER DURING FIRST 2 WK THEN 40 MG/K, Promoter: NONE USED) is listed as 7%, 0%, 100%, not significant, the “tumour outcome (control, treated, inhibition, significance)” value (N-METHYL-N-NITROSOUREA, DIMETHY, N-METHYL-N-NITROSOUREA, DIMETHY, 1% IN THE DIET FOR 30 D BEGINNING 1 D PRIOR TO CARCINOGEN TREATMENT (STUDY DURATION: 28 WK), Strain/Sex: F344/MALE, Target Tissue: Type of Lesion: THYROID: CARCINOMA, Dose [Carcinogen]: 100 MG/KG BW DEN ONCE FOLLOWED BY 20 MG/KG BW MNU 4 TIMES AND 0.05% BBN IN DRINKING WATER DURING FIRST 2 WK THEN 40 MG/K, Promoter: NONE USED) is listed as 7%, 0%, 100%, not significant and the “tumour outcome (control, treated, inhibition, significance)” value (N-METHYL-N-NITROSOUREA, DIMETHY, N-METHYL-N-NITROSOUREA, DIMETHY, 1% IN THE DIET FOR 30 D BEGINNING 1 DAY PRIOR TO CARCINOGEN TREATMENT (STUDY DURATION: 28 WK), Strain/Sex: F344/ MALE, Target Tissue: Type of Lesion: URINARY BLADDER: PAPILLOMA, Dose [Carcinogen]: 100 MG/KG BW DEN ONCE FOLLOWED BY 20 MG/KG BW MNU 4 TIMES AND 0.05% BBN IN DRINKING WATER DURING FIRST 2 WK THEN 40 MG/K, Promoter: NONE USED) is listed as 7%, 0%, 100%, not significant. For the same compound, the “tumour outcome (control, treated, inhibition, significance)” value (N-METHYL-N-NITROSOUREA, DIMETHY, N-METHYL-N-NITROSOUREA, DIMETHY, 1% IN THE DIET FOR 30 D BEGINNING 1 DAY PRIOR TO CARCINOGEN TREATMENT (STUDY DURATION: 28 WK), Strain/Sex: F344/MALE, Target Tissue: Type of Lesion: LARGE INTESTINE: CARCINOMA, Dose [Carcinogen]: 100 MG/KG BW DEN ONCE FOLLOWED BY 20 MG/KG BW MNU 4 TIMES AND 0.05% BBN IN DRINKING WATER DURING FIRST 2 WK THEN 40 MG/K, Promoter: NONE USED) was 7%, 7%, 0%, not significant, the “tumour outcome (control, treated, inhibition, significance)” value (N-METHYL-N-NITROSOUREA, DIMETHY, N-METHYL-N-NITROSOUREA, DIMETHY, 1% IN THE DIET FOR 30 D BEGINNING 1 DAY PRIOR TO CARCINOGEN TREATMENT (STUDY DURATION: 28 WK), Strain/Sex: F344/MALE, Target Tissue: Type of Lesion: SMALL INTESTINE: ADENOMA, Dose [Carcinogen]: 100 MG/KG BW DEN ONCE FOLLOWED BY 20 MG/KG BW MNU 4 TIMES AND 0.05% BBN IN DRINKING WATER DURING FIRST 2 WK THEN 40 MG/K, Promoter: NONE USED) was 33%, 21%, 36%, not significant and the “tumour outcome (control, treated, inhibition, significance)” value (N-METHYL-N-NITROSOUREA, DIMETHY, N-METHYL-N-NITROSOUREA, DIMETHY, 1% IN THE DIET FOR 30 DAYS BEGINNING 1 D PRIOR TO CARCINOGEN TREATMENT (STUDY DURATION: 28 WK), Strain/Sex: F344/MALE, Target Tissue: Type of Lesion: SMALL INTESTINE: CARCINOMA, Dose [Carcinogen]: 100 MG/KG BW DEN ONCE FOLLOWED BY 20 MG/KG BW MNU 4 TIMES AND 0.05% BBN IN DRINKING WATER DURING FIRST 2 WK THEN 40 MG/K, Promoter: NONE USED) was 7%, 14%, -100%, not significant. The “tumour outcome (control, treated, inhibition, significance)” value (N-METHYL-N-NITROSOUREA, DIMETHY, N-METHYL-N-NITROSOUREA, DIMETHY, 1% IN THE DIET FOR 30 DAYS BEGINNING 1 DAY PRIOR TO CARCINOGEN TREATMENT (STUDY DURATION: 28 WK), Strain/Sex: F344/MALE, Target Tissue: Type of Lesion: URINARY BLADDER: CARCINOMA) was 7%, 0%, 100%, not significant and the “tumour outcome (control, treated, inhibition, significance)” value (N-METHYL-NITROSOUREA, DIMETHYLH, N-METHYL-NITROSOUREA, DIMETHYLH, 1% IN THE DIET FOR 30 DAYS BEGINNING 1 DAY PRIOR TO CARCINOGEN TREATMENT (STUDY DURATION: 28 WK), Strain/Sex: F344/MALE, Target Tissue: Type of Lesion: LARGE INTESTINE: ADENOMA, Dose [Carcinogen]: 100 MG/KG BW DEN ONCE FOLLOWED BY 20 MG/KG BW MNU 4 TIMES AND 0.05% BBN IN DRINKING WATER DURING FIRST 2 WK THEN 40 MG/K, Promoter: NONE USED) was 27%, 29%, -7%, not significant.
